The record followed here is patent US20260174766A1, “COMBINATION OF MENIN INHIBITOR(S) AND IMMUNOPROTEASOME INHIBITOR(S) FOR TREATMENT OF LEUKEMIA” (Medizinische Hochschule Hannover, priority 2022, published 2026).

SMILES strings stand for the structures.

In experiment [1] the test system is primary human leukemia cells harboring an MLL-AF4 fusion. Nature of the experiment: MLL-AF4 patient-derived xenograft model with in vivo treatment and limiting dilution assay. Also on record: species or system mouse. As to conditions: ELDA; engraftment >1% hCD45+ in peripheral blood three months after transplantation; DMSO 1/247973. An excerpt: NOD.Cg-Prkdc^scid Il2rg^tm1Wjl Tg(CMV-IL3, CSF2, KITLG) 1Eav/MloySzJ (NSGS), NOD.Cg-Prkdc^scid Il2rg^tm1Wjl/SzJ (NSG) or NOD.Cg-Prkdc^scid Il2rg^tm1Wjl/RJ (NXG) were obtained from The Jackson Laboratory (Bar Harbor, ME, USA). 8-12-weeks old adult mice (male and female) were irradiated with 2 Gy (single dose) before transplantation. 1×10^5 MOLM-13, ML-2 or MV-4; 11 cells transduced with either of two PSMB8/LMP7 shRNAs or non-targeting control; with a pLEX vector containing the sequence of BASP1 or an empty vector; or treated ex vivo with the indicated inhibitors were injected intravenously via the tail vein. For patient derived xenograft experiments (PDX) of human MLLr leukemia we used an improved model for human HSC transplantation and analysis, that has been developed from immune-deficient mouse strains containing Kit mutations: NOD.Cg-^KitW-41J Prkdc^scid Il2rg^tm1Wjl/WaskJ (NSGW41) (Cosgun et al., 2014). […] Human myeloid engraftment (hCD45+ CD13+) was analyzed by flow cytometry. […]
FIGS. 4J-4K show number of engrafted mice per dilution (engraftment is considered if the percentage of hCD45+ cells is >1% in peripheral blood three months after transplantation) is shown and leukemic stem cell (LSC) frequency calculated using the ELDA (Extreme Limiting Dilution Assay) software (reference). […]

For the next experiment, the system named is MLLr cell lines. Nature of the experiment: Cell growth (cell counting after trypan blue exclusion) of MLLr cell lines. Format: cell-based, human. As to conditions: 250-500 nM; MOLM-13, MV-4;11, ML-2, KOPN-8; FIG. 1H. On the procedure:
MOLM-13, MONO-MAC-6, THP-1, KOPN-8, ML-2, MV-4;11, OCI-AML3, U-937, KASUMI-1, K-562, HL-60 and LAMA-84 cells were purchased from DSMZ (Braunschweig, Germany). Cas9-Blast cell lines are subclones of the respective cell lines and stably transduced with lentiCas9-Blast (Addgene plasmid #52962). Cells were cultured in RPMI 1640 medium (Thermo Fisher Scientific, Waltham, MA, USA) supplemented with 10-20% FBS (Thermo Fisher Scientific) in a humid atmosphere of 5% CO2 at 37° C. MV4;11 cells harboring Menin-inhibitor resistance mediating mutations of Menin were generated by CRISPR-Cas9 technology.
Cellular proliferation was assessed by cell counting after trypan blue exclusion. Apoptosis of cells was measured by flow cytometry using Annexin V/SYTOX® Blue staining following the manufacturer's instruction.

Consider `Cc1c(CN2CCC(Nc3ncnc4sc(CC(F)(F)F)cc34)CC2)ccc2c1cc(C#N)n2Cc1cn[nH]c1` [MI-503, 4-Methyl-1-(1H-pyrazol-4-ylmethyl)-5-[[4-[[6-(2,2,2-trifluoroethyl)thieno[2,3-d]pyrimidin-4-yl]amino]-1-piperidinyl]methyl]-1H-indole-2-carbonitrile], for which the LSC frequency in experiment [1] is listed as 1/363914.
On to `O=C(N[C@H](Cc1coc2ccccc12)B(O)O)[C@@H]1C[C@@H]2CC[C@H]1O2` [M3258, ((S)-2-(benzofuran-3-yl)-1-((1R,2R,4S)-7-oxabicyclo[2.2.1]heptane-2-carboxamido)ethyl)boronic acid], for which the “reduction of cell growth in MLL-rearranged human AML cell lines” value with MLLr cell lines is “recapitulated”.
